Values joined by “and” are separate entries in the source; they are usually repeats but may differ in a detail not shown here. Identical values can stand only once. Like-named read-outs stand apart in the source and are kept apart here.
How the values were obtained:
Format in all cases: cell-based
any organism tested = test: Synergy of other biocides paired with surfactants; conditions: for ratio of surfactant to biocide where synergy was observed: not commercially relevant (less biocide relative to surfactant)
Procedure: (§1) Surfactants and biocides were evaluated for synergy by determining the synergy index (S.I.) of the combination. Synergy index was calculated based on minimum inhibitory concentrations (MIC) of two antimicrobial compounds (A and B) alone and in combinations. The tests organisms were Gram negative bacteria (Pseudomonas aeruginosa ATCC #15442), Gram positive bacteria (Staphylococcus aureus ATCC #6538), yeast (Candida albicans ATCC #10203) and mold (Aspergillus niger ATCC#16404). Contact time for the bacteria was 24 and 48 hours, yeast was 48 and 72 hrs, and 3 and 7 days for mold. The test was carried out in 96 well microtiter plates. • Surf. A R^1O(CH2CH(CH3)O)5(CH2CH2O)9H, where R^1 is 2-ethylhexyl • Surf. D R^2O(CH2CH(CH3)O)3(CH2CH2O)5H • Surf. E R^2O(CH2CH(CH3)O)3(CH2CH2O)7H In Surf. D and Surf. E, R^2 is a mixture of C8-C14 linear alkyl groups (70% C8-C10 linear alkyl and 30% C12-C14 linear alkyl) Inoculums Used
(§2) SI is calculated as follows: Ca/CA+Cb/CB=Synergy Index (“SI”)
(§3) Wherein: • CA=concentration of compound A in ppm, acting alone, which produced an end point (MIC of Compound A). • Ca=concentration of compound A in ppm, in the mixture, which produced an end point. • CB=concentration of compound B in ppm, acting alone, which produced an end point (MIC of Compound B). • Cb=concentration of compound B in ppm, in the mixture, which produced an end point. When the sum of Ca/CA and Cb/CB is greater than one, antagonism is indicated.
A • Sodium Benzoate, TRIS NITRO Surf. E • DMDMH Surf. […] At these ratios, the biocide levels in a formulated product would be too low to be practical: Surf. A • DIDAC, IPBC Surf. E • CMIT/MIT, IPBC, OIT, TTPC, WSCP Surf.

[1] = system: Aspergillus niger ATCC#16404; test: MIC / synergy index test in 96 well microtiter plates, mold; conditions: PDB, 3rd day; for MIC: Aspergillus niger, ATCC16404, read-out: CB (MIC of compound B alone), MIT alone, inoculum 1.156E+06 CFU/ml; for Cb (concentration of compound B in the mixture which produced an end point): 1.156E+06 CFU/ml
Procedure: as §1
(§4) The pH of the Triptic soy broth was 7.3 and the Potato dextrose broth was 5.1.
as §2, §3

[2] = system: Staphylococcus aureus ATCC #6538; test: MIC / synergy index test in 96 well microtiter plates, Gram positive bacteria
Procedure: as §1, §4, §2, §3

[3] = system: Pseudomonas aeruginosa ATCC #15442; test: MIC / synergy index test in 96 well microtiter plates, Gram negative bacteria; conditions: for Cb (concentration of compound B in the mixture which produced an end point): 1/10 TSB, 24 hrs; for MIC: Pseudomonas aeruginosa, ATCC15442, 24 h
Procedure: as §1, §4, §2, §3

[4] = system: Candida albicans ATCC #10203; test: MIC / synergy index test in 96 well microtiter plates, yeast; conditions: for CB (MIC of compound B alone): MIT alone; for CB (MIC of compound B alone) / Cb (concentration of compound B in the mixture which produced an end point): PDB, 48 hrs
Procedure: as §1, §4, §2, §3

SMILES: CCC12COCN1COC2 [CS-1246]
- Synergy against any organism tested (any organism tested; biocide paired with Surf. D): no synergy

SMILES: CCCCCCCCCC[N+](C)(C)CCCCCCCCCC.[Cl-] [DIDAC]
- ratio of surfactant to biocide where synergy was observed (any organism tested; biocide paired with Surf. A): 1:0.2 or greater
- ratio of surfactant to biocide where synergy was observed (any organism tested; biocide paired with Surf. D): 1:0.2 or greater

SMILES: CC1(C)C(=O)N(CO)C(=O)N1CO [DMDMH]
- Synergy against any organism tested (any organism tested; biocide paired with Surf. D): no synergy
- Synergy against any organism tested (any organism tested; biocide paired with Surf. E): no synergy

SMILES: CCCCNC(=O)OCC#CI [IPBC]
- ratio of surfactant to biocide where synergy was observed (any organism tested; biocide paired with Surf. A): 1:0.2 or greater
- ratio of surfactant to biocide where synergy was observed (any organism tested; biocide paired with Surf. D): synergistic only at 1:0.05 or worse
- ratio of surfactant to biocide where synergy was observed (any organism tested; biocide paired with Surf. E): 1:0.2 or greater

SMILES: Cn1sc2ccccc2c1=O [MBIT]
- ratio of surfactant to biocide where synergy was observed (any organism tested; biocide paired with Surf. D): synergistic only at 1:0.05 or worse

SMILES: Cn1sccc1=O [MIT, 2-methyl-4-isothiazolin-3-one]
- MIC ([1]; Surf. A series): 400 µg/mL
- MIC ([1]; Surf. E series): 300 µg/mL
- Cb (concentration of compound B in the mixture which produced an end point) ([1]; MIT in mixture with Surf. A): 300 ppm
- Cb (concentration of compound B in the mixture which produced an end point) ([1]; MIT in mixture with Surf. E): 200 ppm
- CB (MIC of compound B alone) ([2]; MIT alone, Surf. E series, 1/10 TSB, inoculum 1.808E+06 CFU/ml, 24 hrs): 60 ppm
- Cb (concentration of compound B in the mixture which produced an end point) ([2]; MIT in mixture with Surf. E, 1/10 TSB, 1.808E+06 CFU/ml, 24 hrs): 50 ppm and 40 ppm and 30 ppm
- MIC ([2]; Staphylococcus aureus, ATCC6538, 24 h, read-out: CB (MIC of compound B alone)): 60 µg/mL
- Cb (concentration of compound B in the mixture which produced an end point) ([3]; MIT in mixture with Surf. A, 8.134E+07 CFU/ml): 30 ppm
- Cb (concentration of compound B in the mixture which produced an end point) ([3]; MIT in mixture with Surf. D, 1.16E+08): 20 ppm
- MIC ([3]; read-out: CB (MIC of compound B alone), MIT alone, Surf. A series, 1/10 TSB, inoculum 8.134E+07 CFU/ml): 40 µg/mL
- MIC ([3]; read-out: CB (MIC of compound B alone), MIT alone, Surf. D series, 1/10 TSB, inoculum 1.16E+08): 30 µg/mL
- MIC ([4]; Candida albicans, ATCC10203, 48 h, read-out: CB (MIC of compound B alone)): 200 µg/mL
- CB (MIC of compound B alone) ([4]; Surf. D series, inoculum 5.726E+05 CFU/ml): 200 ppm
- CB (MIC of compound B alone) ([4]; Surf. E series, inoculum 1.808E+06): 200 ppm
- Cb (concentration of compound B in the mixture which produced an end point) ([4]; MIT in mixture with Surf. A, 1.156E+06 CFU/ml): 100 ppm
- Cb (concentration of compound B in the mixture which produced an end point) ([4]; MIT in mixture with Surf. D, 5.726E+05 CFU/ml): 50 ppm and 60 ppm and 80 ppm and 100 ppm

SMILES: CCCCCCCCn1sccc1=O [OIT]
- ratio of surfactant to biocide where synergy was observed (any organism tested; biocide paired with Surf. D): 1:0.2 or greater
- ratio of surfactant to biocide where synergy was observed (any organism tested; biocide paired with Surf. E): 1:0.2 or greater

SMILES: Oc1ccccc1-c1ccccc1 [OPP]
- Synergy against any organism tested (any organism tested; biocide paired with Surf. D): no synergy

SMILES: O=C([O-])c1ccccc1.[Na+] [Sodium Benzoate]
- Synergy against any organism tested (any organism tested; biocide paired with Surf. A): no synergy

SMILES: O=[N+]([O-])C(CO)(CO)CO [TRIS NITRO]
- Synergy against any organism tested (any organism tested; biocide paired with Surf. A): no synergy

SMILES: CCCCCCCCCCCCCC[P+](CCCC)(CCCC)CCCC.[Cl-] [TTPC]
- ratio of surfactant to biocide where synergy was observed (any organism tested; biocide paired with Surf. E): 1:0.2 or greater
